Experiment: Friability and hardness of dried tablets on handling
Format: physicochemical
Conditions: Pellet Press, dry powder without water

SMILES: CC(=O)N[C@H]1C(O)O[C@H](CO)[C@@H](O)[C@@H]1O (stereo partly shown) [N-Acetylglucosamine]
- compressibility: did not compress at all
